Measured values from the supplement of paper PMC4862054.

Each molecule was assayed on DU-4475 (assay: normalised response (% of control), CellTox Green; higher = less cell death (100 = DMSO, 0 = benzethonium chloride kill control)). Conditions: incubation time: 72 h.
Method in brief: (§1)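 A 20 µl suspension of breast cancer cells was seeded into each well of 384-well plates containing compound at 5 concentrations in 10-fold steps over a compound-specific 10,000-fold range. After 72 h incubation, CellTox Green fluorescence (485/520 nm) was read first, and CellTiter-Glo luminescence was read after 10 min at room temperature. Each plate was normalised against 0.1 % DMSO (100) and a positive kill control (0), and each value is the normalised signal at one concentration.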
`Cc1ccc(C(=O)N(CCCN)[C@@H](c2oc3cc(Cl)ccc3c(=O)c2Cc2ccccc2)C(C)C)cc1` (1 nM) was tested, and the normalised response was 103%. Molecule `Clc1ccc(Nc2nnc(Cc3ccncc3)c3ccccc23)cc1` [Vatalanib] (100 nM) has a normalised response of 101%. With `Cc1ccc(C(=O)Nc2ccc(CN3CCN(C)CC3)c(C(F)(F)F)c2)cc1C#Cc1cnc2cccnn12` [Ponatinib] (10 nM) the normalised response was 101%. `N.N.[Cl][Pt][Cl]` [Cisplatin] (10 nM) was tested, and the normalised response was 114%. `COc1cc([C@@H]2c3cc4c(cc3[C@@H](O[C@@H]3O[C@@H]5CO[C@@H](C)O[C@H]5[C@H](O)[C@H]3O)[C@H]3COC(=O)[C@H]23)OCO4)cc(OC)c1O` [Etoposide] (100 nM) gave a normalised response of 98.8%. With `COc1cc2ncnc(Nc3ccc(F)c(Cl)c3)c2cc1NC(=O)/C=C/CN1CCCCC1` [Dacomitinib] (10 nM) the normalised response was 104%. `NC(=O)Nc1cc(-c2cccc(F)c2)sc1C(=O)N[C@H]1CCCNC1` [AZD7762] (10 nM) was tested, and the normalised response was 99.5%. For `CO[C@H]1/C=C\C=C(/C)C(=O)NC2=CC(=O)C(NCCN(C)C)=C(C[C@@H](C)C[C@H](OC)[C@H](O)[C@@H](C)/C=C(\C)[C@@H]1OC(N)=O)C2=O` [Alvespimycin] (10 nM), the normalised response was 101%.

What follows are molecules tested on CAL-51 in the same assay as above. Conditions: incubation time: 72 h.
Method in brief: as §1
Molecule `CC(C)Cn1cnc2c(N)nc3ccccc3c21` [Imiquimod] (25 nM) has a normalised response of 90.4%. `Cc1ccc(C(=O)N(CCCN)[C@@H](c2oc3cc(Cl)ccc3c(=O)c2Cc2ccccc2)C(C)C)cc1` (1 nM) was tested, and the normalised response was 74.1%. For `Clc1ccc(Nc2nnc(Cc3ccncc3)c3ccccc23)cc1` [Vatalanib] (100 nM), the normalised response was 110%. `Cc1ccc(C(=O)Nc2ccc(CN3CCN(C)CC3)c(C(F)(F)F)c2)cc1C#Cc1cnc2cccnn12` [Ponatinib] (10 nM) was tested, and the normalised response was 99.5%. `N.N.[Cl][Pt][Cl]` [Cisplatin] (10 nM) gave a normalised response of 94.8%. With `COc1cc([C@@H]2c3cc4c(cc3[C@@H](O[C@@H]3O[C@@H]5CO[C@@H](C)O[C@H]5[C@H](O)[C@H]3O)[C@H]3COC(=O)[C@H]23)OCO4)cc(OC)c1O` [Etoposide] (100 nM) the normalised response was 112%. Molecule `COc1cc2ncnc(Nc3ccc(F)c(Cl)c3)c2cc1NC(=O)/C=C/CN1CCCCC1` [Dacomitinib] (10 nM) has a normalised response of 105%. With `NC(=O)Nc1cc(-c2cccc(F)c2)sc1C(=O)N[C@H]1CCCNC1` [AZD7762] (10 nM) the normalised response was 113%. `CO[C@H]1/C=C\C=C(/C)C(=O)NC2=CC(=O)C(NCCN(C)C)=C(C[C@@H](C)C[C@H](OC)[C@H](O)[C@@H](C)/C=C(\C)[C@@H]1OC(N)=O)C2=O` [Alvespimycin] (10 nM) showed a normalised response of 110%.

What follows are molecules tested on CAL-148 in the same assay as above. Conditions: incubation time: 72 h.
Method in brief: as §1
`Cc1ccc(C(=O)N(CCCN)[C@@H](c2oc3cc(Cl)ccc3c(=O)c2Cc2ccccc2)C(C)C)cc1` (1 nM) showed a normalised response of 93.5%. Work on `Clc1ccc(Nc2nnc(Cc3ccncc3)c3ccccc23)cc1` [Vatalanib] (100 nM) yielded a normalised response of 107%. Molecule `Cc1ccc(C(=O)Nc2ccc(CN3CCN(C)CC3)c(C(F)(F)F)c2)cc1C#Cc1cnc2cccnn12` [Ponatinib] (10 nM) has a normalised response of 95.3%. With `N.N.[Cl][Pt][Cl]` [Cisplatin] (10 nM) the normalised response was 103%. Work on `COc1cc([C@@H]2c3cc4c(cc3[C@@H](O[C@@H]3O[C@@H]5CO[C@@H](C)O[C@H]5[C@H](O)[C@H]3O)[C@H]3COC(=O)[C@H]23)OCO4)cc(OC)c1O` [Etoposide] (100 nM) yielded a normalised response of 92%. Molecule `COc1cc2ncnc(Nc3ccc(F)c(Cl)c3)c2cc1NC(=O)/C=C/CN1CCCCC1` [Dacomitinib] (10 nM) has a normalised response of 101%. `NC(=O)Nc1cc(-c2cccc(F)c2)sc1C(=O)N[C@H]1CCCNC1` [AZD7762] (10 nM) was tested, and the normalised response was 96%. With `CO[C@H]1/C=C\C=C(/C)C(=O)NC2=CC(=O)C(NCCN(C)C)=C(C[C@@H](C)C[C@H](OC)[C@H](O)[C@@H](C)/C=C(\C)[C@@H]1OC(N)=O)C2=O` [Alvespimycin] (10 nM) the normalised response was 108%.

The molecules below were run on HCC1937 in the same assay as above. Conditions: incubation time: 72 h.
Method in brief: as §1
With `CC(C)Cn1cnc2c(N)nc3ccccc3c21` [Imiquimod] (25 nM) the normalised response was 102%. For `Cc1ccc(C(=O)N(CCCN)[C@@H](c2oc3cc(Cl)ccc3c(=O)c2Cc2ccccc2)C(C)C)cc1` (1 nM), the normalised response was 97%. Work on `Clc1ccc(Nc2nnc(Cc3ccncc3)c3ccccc23)cc1` [Vatalanib] (100 nM) yielded a normalised response of 115%. For `N.N.[Cl][Pt][Cl]` [Cisplatin] (10 nM), the normalised response was 90.6%. Work on `COc1cc([C@@H]2c3cc4c(cc3[C@@H](O[C@@H]3O[C@@H]5CO[C@@H](C)O[C@H]5[C@H](O)[C@H]3O)[C@H]3COC(=O)[C@H]23)OCO4)cc(OC)c1O` [Etoposide] (100 nM) yielded a normalised response of 111%. In the case of `NC(=O)Nc1cc(-c2cccc(F)c2)sc1C(=O)N[C@H]1CCCNC1` [AZD7762] (10 nM), the normalised response was 107%. With `CO[C@H]1/C=C\C=C(/C)C(=O)NC2=CC(=O)C(NCCN(C)C)=C(C[C@@H](C)C[C@H](OC)[C@H](O)[C@@H](C)/C=C(\C)[C@@H]1OC(N)=O)C2=O` [Alvespimycin] (10 nM) the normalised response was 118%.

Each molecule was assayed on BT-549 in the same assay as above. Conditions: incubation time: 72 h.
Method in brief: as §1
`CC(C)Cn1cnc2c(N)nc3ccccc3c21` [Imiquimod] (25 nM) showed a normalised response of 87.2%. `Cc1ccc(C(=O)N(CCCN)[C@@H](c2oc3cc(Cl)ccc3c(=O)c2Cc2ccccc2)C(C)C)cc1` (1 nM) showed a normalised response of 93.7%. `Clc1ccc(Nc2nnc(Cc3ccncc3)c3ccccc23)cc1` [Vatalanib] (100 nM) gave a normalised response of 105%. `Cc1ccc(C(=O)Nc2ccc(CN3CCN(C)CC3)c(C(F)(F)F)c2)cc1C#Cc1cnc2cccnn12` [Ponatinib] (10 nM) was tested, and the normalised response was 94.4%. For `N.N.[Cl][Pt][Cl]` [Cisplatin] (10 nM), the normalised response was 115%. `COc1cc([C@@H]2c3cc4c(cc3[C@@H](O[C@@H]3O[C@@H]5CO[C@@H](C)O[C@H]5[C@H](O)[C@H]3O)[C@H]3COC(=O)[C@H]23)OCO4)cc(OC)c1O` [Etoposide] (100 nM) was tested, and the normalised response was 92.4%. `COc1cc2ncnc(Nc3ccc(F)c(Cl)c3)c2cc1NC(=O)/C=C/CN1CCCCC1` [Dacomitinib] (10 nM) gave a normalised response of 102%. Work on `NC(=O)Nc1cc(-c2cccc(F)c2)sc1C(=O)N[C@H]1CCCNC1` [AZD7762] (10 nM) yielded a normalised response of 96.5%.
